Results published in patent US10544095B2 (Pfizer Inc., priority 2015, dated 2020).
pIC50: −log10 of the molar value.

Legend:
[1] = target: hTDO2 in human glioblastoma A172 cells (Homo sapiens (Human), UniProt P48775); test: Cellular assay for TDO2 activity determination in A172 cells; format: cell-based; conditions: overnight incubation, kynurenine absorbance at 480 nm
Procedure, shortened: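 Glioblastoma A172 cells with endogenous hTDO2, 1.25×10^4 cells/well, incubated overnight at 37° C. with ten serial compound concentrations in IMDM with 2% FBS. Supernatant kynurenine, after TCA precipitation and 4-(dimethylamino)-benzaldehyde reaction, read at 480 nm against kynurenine standard curve; data curve-fitted.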

TDO2 = TDO2 (Mus musculus (Mouse), UniProt P48776); test: Pharmacodynamic assay for TDO2 in vivo activity: increase of blood tryptophan levels in mice; conditions: female BALB/c mice, plasma after two hours
Protocol: The compounds of the present invention increase the amount of Tryptophan in mouse blood. Briefly, female BALB/c mice (7-8 weeks old) were treated with either a suspension of one of the compounds of the present invention in 0.5% hydroxypropyl methyl cellulose (HPMC) K4M (4000 mPa·s (cPs), Methocell™, Dow chemical)/0.25% Tween® 20 (Sigma Aldrich) at different doses (30, 60 and 100 mg/kg), or with a vehicle control (0.5% HPMC K4M/0.25% Tween 20), by the oral route by gavage (dosing volume 5 mL/kg, 10 mice per group). After two hours, blood was harvested, plasma was prepared and the amount of Tryptophan present was determined by LC-MS-MS (HPLC column Unison UK-Phenyl, 75×4.6, 3 μm, flow rate 0.8 mL/min, 8 minutes gradient from 95% water+0.1% formic acid/5% Acetonitrile+0.1% formic acid to 5% water+0.1% formic acid/95% Acetonitrile+0.1% formic acid, retention time 2.4 min; API4000 MS-MS system from AB Sciex, ESI+ mode, parent ion 205.1, daughter ion 146.1).

[2] = target: human recombinant TDO2 enzyme (Homo sapiens (Human), UniProt P48775); test: Assay for TDO2 enzymatic activity determination; format: biochemical; conditions: human recombinant TDO2, L-Trp 1 mM, kynurenine absorbance at 480 nm
Protocol: The compounds of formula I, its subformulae, and enantiomers, salts and solvates thereof, are useful to inhibit the enzymatic activity of human TDO2. To measure the TDO2 activity, the procedure described in Dolusic et al. J. Med. Chem.; 2011, 54, […] was adapted: the reaction mixture contained (final concentrations) potassium phosphate buffer (50 mM, pH 7.5), ascorbic acid ([…]), methylene blue (0.125 μM), catalase (40 units/mL, from bovine liver, Sigma), and human recombinant TDO2 enzyme (prepared as described in Dolusic et al. J. Med. Chem.; 2011, 54, 5320-5334; 0.9 μg) without or with the compounds of the present invention at the indicated concentrations (total volume 112.5 μL). The reaction was initiated by the addition of 37.5 μL of L-Trp (final concentration 1 mM) at room temperature. The reaction was conducted at room temperature during one hour and stopped by the addition of 30 μL of 30% (w/v) trichloroacetic acid. To convert N-formylkynurenine into kynurenine, the reaction mixture was incubated at 65° C. for 30 min. […] Kynurenine concentrations were determined by measuring the absorbance at 480 nm. A standard curve was made with pure kynurenine. The TDO activity was measured as described above using ten serial concentrations of the compounds of the present invention. Data were fitted using the Prism™ software (GraphPad Software, Inc.) using standard parameters.

Sequence of TDO2 (P48776 whole entry): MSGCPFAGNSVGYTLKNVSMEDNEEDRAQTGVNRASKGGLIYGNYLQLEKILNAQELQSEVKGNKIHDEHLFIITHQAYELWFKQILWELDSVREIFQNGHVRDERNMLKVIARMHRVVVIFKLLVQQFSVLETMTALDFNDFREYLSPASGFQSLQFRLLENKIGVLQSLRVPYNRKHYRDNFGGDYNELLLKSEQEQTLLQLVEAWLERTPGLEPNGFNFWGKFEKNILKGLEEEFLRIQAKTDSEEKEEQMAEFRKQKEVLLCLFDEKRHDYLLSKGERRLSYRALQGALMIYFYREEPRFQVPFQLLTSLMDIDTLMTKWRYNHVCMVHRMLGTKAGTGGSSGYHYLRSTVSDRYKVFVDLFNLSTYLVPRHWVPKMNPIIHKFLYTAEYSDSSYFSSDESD
Sequence of hTDO2 in human glioblastoma A172 cells (P48775 whole entry): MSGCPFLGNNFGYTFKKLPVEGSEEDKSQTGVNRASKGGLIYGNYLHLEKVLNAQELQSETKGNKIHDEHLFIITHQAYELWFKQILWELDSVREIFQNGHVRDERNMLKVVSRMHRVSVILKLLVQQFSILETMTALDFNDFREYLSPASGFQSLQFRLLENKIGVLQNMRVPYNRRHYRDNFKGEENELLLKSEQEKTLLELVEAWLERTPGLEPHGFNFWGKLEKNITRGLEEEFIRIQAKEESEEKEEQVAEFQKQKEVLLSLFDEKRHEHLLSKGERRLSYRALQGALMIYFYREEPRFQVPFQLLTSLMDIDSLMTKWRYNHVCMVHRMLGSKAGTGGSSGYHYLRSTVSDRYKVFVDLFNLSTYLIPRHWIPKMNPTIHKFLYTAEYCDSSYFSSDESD
Sequence of human recombinant TDO2 enzyme (P48775 whole entry): as above

Row | pIC50 [1] | pIC50 [2] | Structure (SMILES) | further results
1 | 6.52 | 6.08 | C[C@H](O)CNS(=O)(=O)c1ccc(-c2c[nH]c3cc(F)ccc23)cc1 [Example 94, (+)-(S)-4-(6-fluoro-1H-indol-3-yl)-N-(2-hydroxypropyl)-benzenesulfonamide] | –
2 | 6.85 | 5.89 | NC(=O)[C@H]1C[C@@H](NS(=O)(=O)c2ccc(-c3c[nH]c4cc(F)ccc34)cc2)C1 [Example 95, (cis)-3-(4-(6-fluoro-1H-indol-3-yl)phenylsulfon-amido)cyclobutanecarboxamide] | –
3 | 6.80 | 6.00 | C[C@H](CO)NS(=O)(=O)c1ccc(-c2c[nH]c3cc(F)ccc23)cc1 [Example 96, 4-(6-fluoro-1H-indol-3-yl)-N-[(2R)-1-hydroxypropan-2-yl]benzenesulfonamide] | –
4 | 7.00 | 6.09 | NC(=O)[C@H]1C[C@H](NS(=O)(=O)c2ccc(-c3c[nH]c4cc(F)ccc34)cc2)C1 [Example 97, (Trans)-3-(4-(6-fluoro-1H-indol-3-yl)phenyl-sulfonamido)cyclobutanecarboxamide] | –
5 | 6.60 | 6.04 | CN(CCS(N)(=O)=O)S(=O)(=O)c1ccc(-c2c[nH]c3cc(F)ccc23)cc1 [Example 98, 4-(6-fluoro-1H-indol-3-yl)-N-methyl-N-(2-sulfamoylethyl)benzenesulfonamide] | –
6 | 6.52 | 5.96 | O=S(=O)(NCCn1cncn1)c1ccc(-c2c[nH]c3cc(F)ccc23)cc1 [Example 99, 4-(6-fluoro-1H-indol-3-yl)-N-[2-(1H-1,2,4-triazol-1-yl)-ethyl]benzenesulfonamide] | –
7 | 6.92 | 6.92 | O=S(=O)(c1ccc(-c2c[nH]c3cc(F)ccc23)cc1)N1CCC(O)(c2cncnc2)C1 (centres unmarked) [Example 120, 1-((4-(6-fluoro-1H-indol-3-yl)phenyl)sulfonyl)-3-(pyrimidin-5-yl)pyrrolidin-3-ol] | –

Second part, the compound before the results:

Row | Structure (SMILES) | pIC50 [1] | pIC50 [2] | further results
8 | CC(=O)NCCNS(=O)(=O)c1ccc(-c2c[nH]c3cc(F)ccc23)cc1 [Example 16, N-(2-(4-(6-fluoro-1H-indol-3-yl)phenylsulfonamido)-ethyl)acetamide] | 6.74 | – | Trp in plasma (average ± standard error of the mean) (TDO2; 30 mg/kg oral gavage): 32700 ng/mL; Trp in plasma (average ± standard error of the mean) (TDO2; 60 mg/kg oral gavage): 35300 ng/mL; Trp in plasma (average ± standard error of the mean) (TDO2; 100 mg/kg oral gavage): 34000 ng/mL
9 | O=S(=O)(c1ccc(-c2c[nH]c3cc(F)ccc23)cc1)N1CCN[C@H](CO)C1 [Example 18, (S)-(4-((4-(6-fluoro-1H-indol-3-yl)phenyl)sulfonyl)piperazin-2-yl)methanol] | 6.72 | 5.96 | increase of circulating Tryptophan compared to vehicle-treated controls (TDO2; 30 mg/kg oral gavage): 67%; increase of circulating Tryptophan compared to vehicle-treated controls (TDO2; 60 mg/kg oral gavage): 81%; increase of circulating Tryptophan compared to vehicle-treated controls (TDO2; 100 mg/kg oral gavage): 74%
10 | NC(=O)COC1CCN(S(=O)(=O)c2ccc(-c3c[nH]c4cc(F)ccc34)cc2)CC1 [Example 84, 2-[(1-{[4-(6-fluoro-1H-indol-3-yl)phenyl]sulfonyl}piperidin-4-yl)-oxy]acetamide] | 6.59 | 5.72 | –
11 | CN1CC(CNS(=O)(=O)c2ccc(-c3c[nH]c4cc(F)ccc34)cc2)OCC1=O (centres unmarked) [Example 86, 4-(6-fluoro-1H-indol-3-yl)-N-[(4-methyl-5-oxomorpholin-2-yl)methyl]benzenesulfonamide] | 6.59 | 5.89 | –
12 | O=S1(=O)CCC(NS(=O)(=O)c2ccc(-c3c[nH]c4cc(F)ccc34)cc2)C1 (centres unmarked) [Example 87, N-(1,1-dioxidotetrahydrothiophen-3-yl)-4-(6-fluoro-1H-indol-3-yl)-benzenesulfonamide] | 6.77 | 6.03 | –
13 | CS(=O)(=O)CCNS(=O)(=O)c1ccc(-c2c[nH]c3cc(F)ccc23)cc1 [Example 88, 4-(6-fluoro-1H-indol-3-yl)-N-[2-(methylsulfonyl)ethyl]-benzene-sulfonamide] | 7.02 | 6.03 | –
14 | O=C1CCN(S(=O)(=O)c2ccc(-c3c[nH]c4cc(F)ccc34)cc2)CCN1 [Example 90, 1-((4-(6-fluoro-1H-indol-3-yl)phenyl)sulfonyl)-1,4-diazepan-5-one] | 6.89 | 5.70 | –
15 | C[C@@H](O)CNS(=O)(=O)c1ccc(-c2c[nH]c3cc(F)ccc23)cc1 [Example 93, (−)-(R)-4-(6-fluoro-1H-indol-3-yl)-N-(2-hydroxypropyl)-benzenesulfonamide] | 6.70 | 6.26 | –
